In patent US20200060276A1, “THIAZOLE COMPOUND AND HERBICIDE” (OAT Agrio Co., Ltd., priority 2017, published 2020):

Columns and labels:
Assay type in all cases: in vivo
[1] = system: Echinochloa crus-galli (L.) P. Beauv. var. formosensis Ohwi; experiment: Test for Herbicidal Effect in Flooding Treatment (#1), ECHDG; details: flooding treatment at seeding, dose 2 kg/ha, visual observation on day 21
Procedure: (§1) (#1) Test for Herbicidal Effect in Flooding Treatment: Styrol cups each having an opening diameter of 8 cm (about 52 cm^2) were respectively filled with soil (45 ml) which had been passed through a sieve (2 mm). Water (about 115 ml) was mixed with the soil such that the soil was flooded. After the soil stood still for 24 hours, Monochoria vaginalis, Echinochloa crus-galli (L.) P. Beauv. var. formosensis Ohwi, Cyperus difformis (umbrella sedge), and Scirpus juncoides were seeded. Each of the compounds of the present invention was dissolved in acetone, and the obtained product was then diluted with water containing Tween 80®. Each of the resultant chemical solutions was dropped on the entire surface of an associated one of treatment sections, so that each section was treated with 1 ml of the respective chemical solution (a dose of 2 kg/ha). After the treatment, the plants were grown in a glasshouse. On day 21, a survey was conducted on the herbicidal activity by visual observation, and evaluation was made according to the following criteria. 0: Growth inhibition effect is less than 10%. 1: Growth inhibition effect is equal to or greater than 10%, and less than 30%. 2; Growth inhibition effect is equal to or greater than 30%, and less than 50%. 3: Growth inhibition effect equal to or greater than 50%, and less than 70%. 4: Growth inhibition effect is equal to or greater than 70%, and less than 90%. 5: Growth inhibition effect is equal to or greater than 90%, or complete withering is achieved. ECHDG=Echinochloa crus-galli (L.) P. Beauv. var. formosensis Ohwi, MONVA=Monochoria vaginalis, SCIJU=Scirpus juncoides, CYMIC=Cyperus microiria.

Scirpus juncoides = experiment: Test for Herbicidal Effect in Flooding Treatment (#1), SCIJU; details: flooding treatment at seeding, dose 2 kg/ha, visual observation on day 21
Procedure: as §1

[2] = system: Echinochloa crus-galli (L.) P. Beauv. var. formosensis Ohwi; experiment: Test for Herbicidal Effect in Flooding Treatment (#2), ECHDG at 2-2.5 leaf stage; details: flooding treatment at 2-2.5 leaf stage, dose 0.2 kg/ha, visual observation on day 21
Procedure: (#2) Test for Herbicidal Effect in Flooding Treatment: Styrol cups each having an opening diameter of 13 cm (about 130 cm^2) were respectively filled with muddy soil (500 ml). Water (about 300 ml) was mixed with the soil such that the soil was flooded. After the soil stood still for 24 hours, Echinochloa crus-galli (L.) P. Beauv. var. formosensis Ohwi was seeded. When the Echinochloa crus-galli (L.) P. Beauv. var. formosensis Ohwi grew to reach 2-2.5 leaf stage, chemical solutions were dropped on the entire surface of treatment sections, so that each section is treated with 1 ml of the respective chemical solution (a dose of 0.2 kg/ha). Each of the chemical solutions was prepared by dissolving associated one of the compounds of the present invention in acetone, followed by dilution with water containing Tween 80 g. After the treatment, the plants were grown in a glasshouse. On day 21, a survey was conducted on the herbicidal activity by visual observation, and evaluation was made according to the following criteria. 0: Growth inhibition effect is less than 10%. 1: Growth inhibition effect is equal to or greater than 10%, and less than 30%. 2; Growth inhibition effect is equal to or greater than 30%, and less than 50%. 3: Growth inhibition effect equal to or greater than 50%, and less than 70%. 4: Growth inhibition effect is equal to or greater than 70%, and less than 90%. 5: Growth inhibition effect is equal to or greater than 90%, or complete withering is achieved. ECHDG=Echinochloa crus-galli (L.) P. Beauv. var. formosensis Ohwi, MONVA=Monochoria vaginalis, SCIJU=Scirpus juncoides, CYMIC=Cyperus microiria. The herbicidal activity of the following comparative compounds A and B (the compounds disclosed Japanese Unexamined Patent Publication No. 2003-096059) were evaluated in a manner pursuant to Test Example 1. (#2).

| Structure (SMILES) | ECHDG #1 herbicidal effect (growth inhibition grade) [1] | SCIJU #1 herbicidal effect (growth inhibition grade) (Scirpus juncoides) | ECHDG (2-2.5L) #2 herbicidal effect (growth inhibition grade) [2] |
| --- | --- | --- | --- |
| COCOc1cccc(F)c1CS(=O)(=O)c1ncc(Cl)s1 [Compound 1C-37] | 5 (Growth inhibition effect is equal to or greater than 90%, or complete withering is achieved) | 5 (Growth inhibition effect is equal to or greater than 90%, or complete withering is achieved) | 5 (Growth inhibition effect is equal to or greater than 90%, or complete withering is achieved) |
| O=S(=O)(Cc1c(F)cccc1OC(F)(F)F)c1ncc(Cl)s1 [Compound 1C-48] | 5 (Growth inhibition effect is equal to or greater than 90%, or complete withering is achieved) | 5 (Growth inhibition effect is equal to or greater than 90%, or complete withering is achieved) | 5 (Growth inhibition effect is equal to or greater than 90%, or complete withering is achieved) |
| O=S(=O)(Cc1c(OCC(F)(F)F)cccc1C(F)(F)F)c1ncc(Cl)s1 [Compound 1C-56] | 5 (Growth inhibition effect is equal to or greater than 90%, or complete withering is achieved) | 5 (Growth inhibition effect is equal to or greater than 90%, or complete withering is achieved) | 5 (Growth inhibition effect is equal to or greater than 90%, or complete withering is achieved) |
| O=S(=O)(Cc1ccccc1OC(F)(F)C(F)F)c1ncc(Cl)s1 [Compound 1C-57] | 5 (Growth inhibition effect is equal to or greater than 90%, or complete withering is achieved) | 5 (Growth inhibition effect is equal to or greater than 90%, or complete withering is achieved) | 5 (Growth inhibition effect is equal to or greater than 90%, or complete withering is achieved) |
| O=S(=O)(Cc1ccc(OCc2ccccc2)cc1)c1ncc(Cl)s1 [Compound 1C-120] | 5 (Growth inhibition effect is equal to or greater than 90%, or complete withering is achieved) | 4 (Growth inhibition effect is equal to or greater than 70%, and less than 90%) | 2 (Growth inhibition effect is equal to or greater than 30%, and less than 50%) |
| CC(C)(c1c(F)cccc1OC(F)F)S(=O)(=O)c1ncc(Cl)s1 [Compound 1C-141] | 5 (Growth inhibition effect is equal to or greater than 90%, or complete withering is achieved) | 5 (Growth inhibition effect is equal to or greater than 90%, or complete withering is achieved) | 4 (Growth inhibition effect is equal to or greater than 70%, and less than 90%) |
| COc1cccc(Cl)c1CS(=O)(=O)c1ncc(Br)s1 [Compound 1C-151] | 5 (Growth inhibition effect is equal to or greater than 90%, or complete withering is achieved) | 5 (Growth inhibition effect is equal to or greater than 90%, or complete withering is achieved) | 5 (Growth inhibition effect is equal to or greater than 90%, or complete withering is achieved) |
| O=S(=O)(Cc1ccccc1OC(F)F)c1ncc(Br)s1 [Compound 1C-152] | 5 (Growth inhibition effect is equal to or greater than 90%, or complete withering is achieved) | 5 (Growth inhibition effect is equal to or greater than 90%, or complete withering is achieved) | 5 (Growth inhibition effect is equal to or greater than 90%, or complete withering is achieved) |
| O=S(=O)(Cc1c(F)cccc1OC(F)(F)F)c1ncc(Br)s1 [Compound 1C-158] | 5 (Growth inhibition effect is equal to or greater than 90%, or complete withering is achieved) | 5 (Growth inhibition effect is equal to or greater than 90%, or complete withering is achieved) | 5 (Growth inhibition effect is equal to or greater than 90%, or complete withering is achieved) |
| O=S(=O)(Cc1c(Cl)cccc1OC(F)(F)F)c1ncc(Br)s1 [Compound 1C-159] | 5 (Growth inhibition effect is equal to or greater than 90%, or complete withering is achieved) | 5 (Growth inhibition effect is equal to or greater than 90%, or complete withering is achieved) | 5 (Growth inhibition effect is equal to or greater than 90%, or complete withering is achieved) |
| CCS(=O)(=O)c1cccc(F)c1CS(=O)(=O)c1ncc(Cl)s1 [Compound 1C-174] | 5 (Growth inhibition effect is equal to or greater than 90%, or complete withering is achieved) | 5 (Growth inhibition effect is equal to or greater than 90%, or complete withering is achieved) | 4 (Growth inhibition effect is equal to or greater than 70%, and less than 90%) |
| O=S(=O)(Cc1c(Cl)cc(OC(F)F)cc1Cl)c1ncc(Cl)s1 [Compound 1C-175] | 5 (Growth inhibition effect is equal to or greater than 90%, or complete withering is achieved) | 5 (Growth inhibition effect is equal to or greater than 90%, or complete withering is achieved) | 5 (Growth inhibition effect is equal to or greater than 90%, or complete withering is achieved) |
| O=S(=O)(Cc1c(F)cc(OC(F)F)cc1F)c1ncc(Cl)s1 [Compound 1C-176] | 5 (Growth inhibition effect is equal to or greater than 90%, or complete withering is achieved) | 5 (Growth inhibition effect is equal to or greater than 90%, or complete withering is achieved) | 5 (Growth inhibition effect is equal to or greater than 90%, or complete withering is achieved) |
| O=S(=O)(Cc1c(F)cccc1OCF)c1ncc(Cl)s1 [Compound 1C-179] | 5 (Growth inhibition effect is equal to or greater than 90%, or complete withering is achieved) | 5 (Growth inhibition effect is equal to or greater than 90%, or complete withering is achieved) | 5 (Growth inhibition effect is equal to or greater than 90%, or complete withering is achieved) |
| O=S(=O)(Cc1c(Cl)ccc(OC(F)F)c1F)c1ncc(Cl)s1 [Compound 1C-180] | 5 (Growth inhibition effect is equal to or greater than 90%, or complete withering is achieved) | 5 (Growth inhibition effect is equal to or greater than 90%, or complete withering is achieved) | 5 (Growth inhibition effect is equal to or greater than 90%, or complete withering is achieved) |
| O=C(O)COc1cccc(F)c1CS(=O)(=O)c1ncc(Cl)s1 [Compound 1C-183] | 5 (Growth inhibition effect is equal to or greater than 90%, or complete withering is achieved) | 5 (Growth inhibition effect is equal to or greater than 90%, or complete withering is achieved) | 3 (Growth inhibition effect equal to or greater than 50%, and less than 70%) |
